Data on 1 compound can be found in publication PMC7058083, “Structural basis of ligand binding modes at the human formyl peptide receptor 2” (Nature Communications, 2020).

Where a chain is given by its changes, count along the chain named. Residues, ends and D or L forms follow the SMILES beside them. *: point of attachment. For = O=C*

Common to all, as to test: Competition binding of fMLFK with WK(FITC)YMVm, flow cytometry on HEK293F cells
For test [1], the target named is T1, wild-type (WT) and mutant FPR2 (Homo sapiens, UniProt P25090, L268A).
T1 construct: expressed in transfected cells; host or cells: HEK293F
T1 sequence (P25090 1-351 L268A): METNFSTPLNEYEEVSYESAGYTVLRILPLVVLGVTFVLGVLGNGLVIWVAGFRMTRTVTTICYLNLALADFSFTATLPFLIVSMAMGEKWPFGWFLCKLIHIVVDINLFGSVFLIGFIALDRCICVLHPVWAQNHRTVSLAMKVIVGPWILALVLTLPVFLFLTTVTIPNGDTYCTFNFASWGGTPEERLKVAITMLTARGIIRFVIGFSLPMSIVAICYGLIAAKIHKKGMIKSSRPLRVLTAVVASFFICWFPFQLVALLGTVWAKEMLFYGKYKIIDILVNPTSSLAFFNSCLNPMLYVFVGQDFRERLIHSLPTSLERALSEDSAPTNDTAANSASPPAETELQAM
The note with it: FPR2 L268A; mean ± s.e.m., n=3; SEM. How it is done:
(§1) Flag-tagged wild-type and mutant FPR2s were cloned into the pTT5 vector and expressed in HEK293F cells. The cells were harvested, and washed with Hanks’ Balanced Salt Solution (HBSS) buffer supplemented with 0.5% bovine serum albumin and 20 mM HEPES, pH 7.4. The cells were then resuspended in the same buffer to the final concentration of 1 × 10^6 cells per ml. The cell-surface expression was measured as mentioned above. […] Mean fluorescent intensity of each well was then read by a FCM (flow cytometry) reader (Millipore). […] For competitive binding of fMLFK, cells were plated in 96-well plates (100,000 cells per well), and incubated with WK(FITC)YMVm at 4 °C for 1 h. The following concentrations of WK(FITC)YMVm were used: 10 nM (wild type, L81^2.60F, E89G, and V105^3.32A), 30 nM (D281^7.32G), 40 nM (H102^3.29F, V160^4.60A, L268^ECL3A, N285^7.36A, and F292^7.43A), and 100 nM (L164^4.64A and T177A). Then increasing concentrations of fMLFK (100 nM–1 mM) were added, and incubated for another 1 h on ice. Mean fluorescent intensity values were measured by flow cytometry. Data were analyzed using Prism 7.0.

Test [2] concerns the target T2, wild-type (WT) and mutant FPR2 (Homo sapiens, UniProt P25090, L164A).
T2 construct: expressed in transfected cells; host or cells: HEK293F
T2 sequence (P25090 1-351 L164A): T1 sequence (P25090 1-351 L268A) with L164A, A268L
The conditions noted are these: FPR2 L164A; mean ± s.e.m., n=3; SEM. As to the method:
as §1

For test [3], the target named is T3, wild-type (WT) and mutant FPR2 (Homo sapiens, UniProt P25090, E89G).
T3 construct: expressed in transfected cells; host or cells: HEK293F
T3 sequence (P25090 1-351 E89G): T1 sequence (P25090 1-351 L268A) with E89G, A268L
The note with it: FPR2 E89G; mean ± s.e.m., n=3; SEM. How it is done:
as §1

Test [4] concerns the target T4, wild-type (WT) and mutant FPR2 (Homo sapiens, UniProt P25090, N285A).
T4 construct: expressed in transfected cells; host or cells: HEK293F
T4 sequence (P25090 1-351 N285A): T1 sequence (P25090 1-351 L268A) with A268L, N285A
The conditions noted are these: FPR2 N285A; mean ± s.e.m., n=3; SEM. As to the method:
as §1

The target of test [5] is T5, wild-type (WT) and mutant FPR2 (Homo sapiens, UniProt P25090, V160A).
T5 construct: expressed in transfected cells; host or cells: HEK293F
T5 sequence (P25090 1-351 V160A): T1 sequence (P25090 1-351 L268A) with V160A, A268L
The conditions noted are these: FPR2 V160A; mean ± s.e.m., n=3; SEM. How it is done: as §1

For the compound `CSCC[C@H](NC=O)C(=O)N[C@@H](CC(C)C)C(=O)N[C@@H](Cc1ccccc1)C(=O)N[C@@H](CCCCN)C(=O)O` [fMLFK] (For-MLFK-OH), the “pKi, competition binding” value in test [1] is 4.42 ± 0.15; in test [2], 4.16 ± 0.25; in test [3], 3.49 ± 0.31; in test [4], 3.75 ± 0.16; in test [5], 4.16 ± 0.14.
